Columns and labels:
Type in all cases: in vivo
[1] = system: southern crabgrass; assay: Herbicidal effect test by treatment of dry field farming soil (Test Example 3); details: 120 g/10 a, sprayed one day after seeding, 14 days after treatment
Description: (§1) Herbicidal Rate (%)={1−(Average Dry Weight (g) of Plant of Treated Area)/(Average Dry Weight (g) of Plant of Untreated Area)}×100 [Math. 1] Pots with a size of 36 cm^2 were filled with a dry field farming soil (alluvium). The soil of the top layer of 1 cm and seeds of weeds, namely southern crabgrass, Echinochloa crus-galli, Chenopodium album and Amaranthus viridis, 20 seeds each, were evenly mixed, and the top layer was gently pressed. Emulsions prepared using the compounds in Table 5 below according to Formulation Example 5 were diluted with water one day after seeding, and the water-diluted agent solutions were sprayed to the soil surfaces at a ratio of 100 liters per 10 ares. A converted amount of the applied active ingredient corresponded to 120 g per 10 ares. The herbicidal effects were evaluated by the same standard as that in Test Example 1, 14 days after the treatment with the agents. In this regard, the compound numbers in Table 5 are the same as those in Table 1 and Table 2 above.

[2] = system: Echinochloa crus-galli; assay: as above; details: 120 g/10 a, sprayed one day after seeding, 14 days after treatment
Description: as §1

[3] = system: Amaranthus viridis; assay: as above; details: 120 g/10 a, sprayed one day after seeding, 14 days after treatment
Description: as §1

[4] = system: Chenopodium album; assay: as above; details: 120 g/10 a, sprayed one day after seeding, 14 days after treatment
Description: as §1

[5] = system: Echinochloa crus-galli; assay: Herbicidal effect test by treatment during growing period in paddy rice cultivation (Test Example 2); details: 120 g/10 a, treated seven days after seeding, 14 days after treatment
Description: (§2) Herbicidal Rate (%)={1−(Average Dry Weight (g) of Plant of Treated Area)/(Average Dry Weight (g) of Plant of Untreated Area)}×100 [Math. 1]
(§3) Wagner pots with an area of 1/10000 ares were filled with a paddy soil, and a compound fertilizer (N:P:K=17:17:17) was mixed after addition of water, followed by soil puddling. Then, Echinochloa crus-galli, broad leaf weeds (Lindernia pyxidaria and Monochoria vaginalis) and Scirpus juncoides, 30 seeds each, were sown in a depth of 0 to 1 cm. Water was poured immediately after seeding, and the water depth was kept at about 3 cm. A subsequent management was conducted in a glass greenhouse. Emulsions prepared using the compounds in Table 4 below according to Formulation Example 5 were diluted with water seven days after seeding, and a certain amount of the water-diluted agent solutions were dropped. A converted amount of the applied active ingredient corresponded to 120 g per 10 ares. The test was conducted in a double system per one agent solution concentration area, and the herbicidal rates (%) were determined by the equation (Math. 1) 14 days after the treatment with the agents. In this regard, the compound numbers in Table 4 are the same as those in Table 1 and Table 2 above.

[6] = system: Scirpus juncoides; assay: as above; details: 120 g/10 a, treated seven days after seeding, 14 days after treatment
Description: as §2, §3

[7] = system: Monochoria vaginalis; assay: as above; details: 120 g/10 a, treated seven days after seeding, 14 days after treatment
Description: as §2, §3

[8] = system: Lindernia pyxidaria; assay: as above; details: 120 g/10 a, treated seven days after seeding, 14 days after treatment
Description: as §2, §3

[9] = system: Echinochloa crus-galli; assay: Herbicidal effect test by treatment of rice paddy soil (Test Example 1); details: 120 g/10 a, treated immediately after seeding, 14 days after treatment
Protocol: (§4) Wagner pots with an area of 1/10000 ares were filled with a paddy soil, and a compound fertilizer (N:P:K=17:17:17) was mixed after water was added, followed by soil puddling. Then, Echinochloa crus-galli, broad leaf weeds (Lindernia pyxidaria and Monochoria vaginalis) and Scirpus juncoides, 30 seeds each, were sown in a depth of 0 to 1 cm. Water was poured immediately after seeding, and the water depth was kept at about 3 cm. A subsequent management was conducted in a glass greenhouse. Immediately after that, emulsions prepared using the compounds in Table 3 below according to Formulation Example 5 were diluted with water, and a certain amount of the water-diluted agent solutions were dropped. A converted amount of the applied active ingredient corresponded to 120 g per 10 ares.
(§5) This test was conducted in a double system per one agent solution concentration area, and the herbicidal rates (%) were determined by the following equation (Math. 1) 14 days after the treatment with the agents.
as §2

[10] = system: Scirpus juncoides; assay: as above; details: 120 g/10 a, treated immediately after seeding, 14 days after treatment
Protocol: as §4, §5, §2

[11] = system: Monochoria vaginalis; assay: as above; details: 120 g/10 a, treated immediately after seeding, 14 days after treatment
Protocol: as §4, §5, §2

[12] = system: Lindernia pyxidaria; assay: as above; details: 120 g/10 a, treated immediately after seeding, 14 days after treatment
Protocol: as §4, §5, §2

[13] = system: southern crabgrass; assay: Herbicidal effect test by treatment of stem and leaf in dry field farming (Test Example 4); details: 120 g/10 a, stem and leaf treatment seven days after seeding, 14 days after treatment
Description: as §1, with “Table 6” for “Table 5”, “water seven days” for “water one day”

[14] = system: Echinochloa crus-galli; assay: as above; details: 120 g/10 a, stem and leaf treatment seven days after seeding, 14 days after treatment
Description: as §1, with “Table 6” for “Table 5”, “water seven days” for “water one day”

[15] = system: Amaranthus viridis; assay: as above; details: 120 g/10 a, stem and leaf treatment seven days after seeding, 14 days after treatment
Description: as §1, with “Table 6” for “Table 5”, “water seven days” for “water one day”

[16] = system: Chenopodium album; assay: as above; details: 120 g/10 a, stem and leaf treatment seven days after seeding, 14 days after treatment
Description: as §1, with “Table 6” for “Table 5”, “water seven days” for “water one day”

SMILES | Herbicidal rate, southern crabgrass [1] | Herbicidal rate, Echinochloa crus-galli [2] | Herbicidal rate, Amaranthus viridis [3] | Herbicidal rate, Chenopodium album [4] | Herbicidal rate, Echinochloa crus-galli [5] | Herbicidal rate, Scirpus juncoides [6] | Herbicidal rate, Monochoria vaginalis [7] | Herbicidal rate, Lindernia pyxidaria [8] | Herbicidal rate, Echinochloa crus-galli [9] | Herbicidal rate, Scirpus juncoides [10] | Herbicidal rate, Monochoria vaginalis [11] | Herbicidal rate, Lindernia pyxidaria [12] | Herbicidal rate, southern crabgrass [13] | Herbicidal rate, Echinochloa crus-galli [14] | Herbicidal rate, Amaranthus viridis [15] | Herbicidal rate, Chenopodium album [16]
COC1CCCC1n1oc(=O)c(Cc2ccccc2N(C(=O)OCC(C)C)S(=O)(=O)C(F)(F)F)c1C (centres unmarked) [Compound 248] | 90% | 90% | 60% | 60% | 100% | 90% | 90% | 80% | 100% | 100% | 100% | 100% | 80% | 90% | 90% | 90%
COC1CCCCC1n1oc(=O)c(Cc2ccccc2N(C(=O)OCC(C)C)S(=O)(=O)C(F)(F)F)c1C (centres unmarked) [Compound 250] | 90% | 90% | 90% | 60% | 100% | 90% | 90% | 90% | 100% | 100% | 100% | 100% | 90% | 90% | 90% | 90%
COC1CCCC1n1oc(=O)c(Cc2ccccc2N(C(=O)c2ccc(Cl)cc2)S(=O)(=O)C(F)(F)F)c1C (centres unmarked) [Compound 147] | 90% | 90% | 60% | 60% | 100% | 90% | 90% | 80% | 100% | 100% | 100% | 100% | 80% | 90% | 90% | 90%
COC1CCCC1n1oc(=O)c(Cc2ccccc2N(C(=O)OC(C)C)S(=O)(=O)C(F)(F)F)c1C (centres unmarked) [Compound 212] | 90% | 90% | 60% | 60% | 100% | 90% | 90% | 80% | 100% | 100% | 100% | 100% | 80% | 90% | 90% | 90%
COC1CCCC1n1oc(=O)c(Cc2ccccc2N(S(=O)(=O)C(F)(F)F)S(=O)(=O)C(F)(F)F)c1C (centres unmarked) [Compound 349, 1,1,1-trifluoro-N-[2-[[(2-methoxycyclopentyl)-3-methyl-5-oxoisoxazol-4-yl]methyl]phenyl]-N-(trifluoromethylsulfonyl)methanesulfonamide] | 90% | 90% | 90% | 60% | 100% | 90% | 80% | 80% | 100% | 90% | 100% | 100% | 80% | 90% | 80% | 80%
COC1CCCC1n1oc(=O)c(Cc2ccccc2N(C(=O)Oc2ccccc2)S(=O)(=O)C(F)(F)F)c1C (centres unmarked) [Compound 286] | 90% | 90% | 60% | 60% | 100% | 90% | 90% | 80% | 100% | 100% | 100% | 100% | 80% | 90% | 90% | 90%
COC1CCCCC1n1oc(=O)c(Cc2ccccc2N(C(=O)Oc2ccccc2)S(=O)(=O)C(F)(F)F)c1C (single isomer, unassigned) [Compound 288] | 90% | 90% | 40% | 60% | 100% | 90% | 90% | 90% | 100% | 100% | 100% | 100% | 90% | 90% | 90% | 90%
COC1CCCCC1n1oc(=O)c(Cc2ccccc2N(C(=O)Oc2ccccc2)S(=O)(=O)C(F)(F)F)c1C (single isomer, unassigned) [Compound 289] | 90% | 90% | 40% | 60% |  | 90% | 90% | 90% | 100% | 100% | 100% | 100% |  |  | 90% | 90%

Source: US20210309619A1, “ISOXAZOLIN-5-ONE DERIVATIVES AND HERBICIDES CONTAINING THE SAME AS ACTIVE INGREDIENTS” (HOKKO CHEMICAL INDUSTRY CO., LTD., priority 2018, published 2021)
